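Following 48 hours of exposure in 96-well plates, responses at five concentrations were used to interpolate endpoints linearly. At the GI50, growth is halved.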 Activity calls are given as the source filed them. Rule as the data show it: active = GI50 up to about 1.1 µM and inactive = higher.
What was measured:
Assay in all cases: NCI-60 cell line screen, 48 h
[1] = tested on: HL-60
[2] = tested on: OVCAR-4
[3] = tested on: NCI-H226
[4] = tested on: SN12C
[5] = tested on: OVCAR-8
[6] = tested on: IGROV-1
[7] = tested on: KM12
[8] = tested on: ACHN
[9] = tested on: NCI-H23
[10] = tested on: 786-0
[11] = tested on: SNB-19
[12] = tested on: RXF 631
[13] = tested on: K562
[14] = tested on: HOP-62
[15] = tested on: M14
[16] = tested on: HCT-116
[17] = tested on: EKVX
[18] = tested on: BT-549
[19] = tested on: PC-3
[20] = tested on: HOP-92

Compound | GI50 [1] | GI50 [2] | GI50 [3] | GI50 [4] | GI50 [5] | GI50 [6] | GI50 [7] | GI50 [8] | GI50 [9] | GI50 [10] | GI50 [11] | GI50 [12] | GI50 [13] | GI50 [14] | GI50 [15] | GI50 [16] | GI50 [17] | GI50 [18] | GI50 [19] | GI50 [20]
O=C1C2Cc3ccccc3CN2C(=O)N1CCN1CCCC1 (configuration not stated) | > 100 µM (inactive) | > 100 µM (inactive) | > 100 µM (inactive) | > 100 µM (inactive) | > 100 µM (inactive) | > 100 µM (inactive) | > 100 µM (inactive) | > 100 µM (inactive) | > 100 µM (inactive) | > 100 µM (inactive) | > 100 µM (inactive) | > 100 µM (inactive) | > 100 µM (inactive) | > 100 µM (inactive) | > 100 µM (inactive) | – | – | – | – | –
CC(=O)Nc1ccc2c3c(cc(O)c2c1)N(C(=O)CCCCC(=O)N1CC(CCl)c2c1cc(O)c1cc(NC(C)=O)ccc21)CC3CCl (configuration not stated) | < 0.01 µM (active) | 1.63 µM (inactive) | 0.0333 µM (active) | 0.154 µM (active) | 0.253 µM (active) | 0.352 µM (active) | 0.505 µM (active) | 0.0308 µM (active) | < 0.0161 µM (active) | 0.0528 µM (active) | 0.0436 µM (active) | – | 0.284 µM (active) | 0.177 µM (active) | 0.083 µM (active) | 0.125 µM (active) | 2.38 µM (inactive) | 0.183 µM (active) | 0.526 µM (active) | 0.207 µM (active)
O=c1cc(NNCc2ccccc2)[nH]c(=O)[nH]1 | > 100 µM (inactive) | > 100 µM (inactive) | > 100 µM (inactive) | > 100 µM (inactive) | > 100 µM (inactive) | > 100 µM (inactive) | > 100 µM (inactive) | > 100 µM (inactive) | > 100 µM (inactive) | > 100 µM (inactive) | > 100 µM (inactive) | – | > 100 µM (inactive) | > 100 µM (inactive) | > 100 µM (inactive) | > 10 µM (inactive) | > 100 µM (inactive) | > 100 µM (inactive) | > 100 µM (inactive) | 4.68 µM (inactive)
Cc1ccccc1OC(C)C(=O)NN1C(=O)CC(=O)NC1=S (configuration not stated) | > 100 µM (inactive) | 63.2 µM (inactive) | 70.5 µM (inactive) | > 100 µM (inactive) | > 100 µM (inactive) | > 100 µM (inactive) | 92 µM (inactive) | 84.5 µM (inactive) | > 100 µM (inactive) | > 100 µM (inactive) | > 100 µM (inactive) | – | > 100 µM (inactive) | > 100 µM (inactive) | > 100 µM (inactive) | > 100 µM (inactive) | > 100 µM (inactive) | > 100 µM (inactive) | > 100 µM (inactive) | > 100 µM (inactive)
C[C@H]1CCCCC[C@@H]2CC(=O)CC2C(=O)CCC(=O)O1 (some centres not stated) | > 100 µM (inactive) | > 100 µM (inactive) | 16.7 µM (inactive) | > 100 µM (inactive) | > 100 µM (inactive) | > 100 µM (inactive) | > 100 µM (inactive) | > 100 µM (inactive) | > 100 µM (inactive) | > 100 µM (inactive) | > 100 µM (inactive) | – | > 100 µM (inactive) | > 100 µM (inactive) | > 100 µM (inactive) | > 100 µM (inactive) | > 100 µM (inactive) | > 100 µM (inactive) | > 100 µM (inactive) | > 100 µM (inactive)
Cc1n(-c2ccccc2)c2c([n+]1Cc1ccc([N+](=O)[O-])cc1)C(=O)c1ccccc1C2=O | 0.409 µM (active) | 1.66 µM (inactive) | 5.43 µM (inactive) | 1.64 µM (inactive) | 2.37 µM (inactive) | 0.855 µM (active) | 2.29 µM (inactive) | 3.72 µM (inactive) | 1.9 µM (inactive) | 4.31 µM (inactive) | 1.72 µM (inactive) | – | 1.16 µM (inactive) | 6.5 µM (inactive) | 2.59 µM (inactive) | 2.02 µM (inactive) | 2.49 µM (inactive) | 1.79 µM (inactive) | 2.25 µM (inactive) | 2.3 µM (inactive)
COc1ccc(C[P+]2(c3ccccc3)CCCCC2)cc1.O=[N+]([O-])c1ccc(C[P+]2(c3ccccc3)CCCCC2)cc1.[O-][Cl+3]([O-])([O-])[O-].[O-][Cl+3]([O-])([O-])[O-] | 20.6 µM (inactive) | > 100 µM (inactive) | – | 70 µM (inactive) | > 100 µM (inactive) | 47.6 µM (inactive) | 75.5 µM (inactive) | > 100 µM (inactive) | 66.8 µM (inactive) | > 100 µM (inactive) | 89.7 µM (inactive) | > 100 µM (inactive) | 56.1 µM (inactive) | 77.1 µM (inactive) | 66.2 µM (inactive) | – | > 100 µM (inactive) | – | – | –
Cc1cc2cc3c(cc2c(-c2ccc([N+](=O)[O-])cc2)n1)OCO3 | 57.5 µM (inactive) | 17.9 µM (inactive) | 24.8 µM (inactive) | 28.7 µM (inactive) | 28.5 µM (inactive) | 15.5 µM (inactive) | 25.1 µM (inactive) | 29.9 µM (inactive) | 45 µM (inactive) | 23.6 µM (inactive) | 21.2 µM (inactive) | – | 60.8 µM (inactive) | 19 µM (inactive) | 88.7 µM (inactive) | 36.8 µM (inactive) | 62.2 µM (inactive) | 17.2 µM (inactive) | 44.7 µM (inactive) | 3.77 µM (inactive)
Fc1cc(C2=C[C@H](c3ccc(Cl)cc3)NC(=S)N2)c(Cl)cc1Cl | 20.6 µM (inactive) | 35.7 µM (inactive) | 88.7 µM (inactive) | 29.3 µM (inactive) | 39.9 µM (inactive) | 41.2 µM (inactive) | 49.4 µM (inactive) | 37.8 µM (inactive) | 63.8 µM (inactive) | 47.9 µM (inactive) | 76.7 µM (inactive) | – | 5.62 µM (inactive) | 48.2 µM (inactive) | 54.3 µM (inactive) | 35.8 µM (inactive) | 31.6 µM (inactive) | > 100 µM (inactive) | 28.3 µM (inactive) | 27.2 µM (inactive)
CN(C)CC/C=C1\c2ccccc2Sc2ccc(Cl)cc21 | 11.2 µM (inactive) | 12.6 µM (inactive) | 18.6 µM (inactive) | 15.2 µM (inactive) | 15.5 µM (inactive) | 11.9 µM (inactive) | 21 µM (inactive) | 15.8 µM (inactive) | 15.6 µM (inactive) | 12.2 µM (inactive) | 15.5 µM (inactive) | – | 5.16 µM (inactive) | 14.4 µM (inactive) | 3.01 µM (inactive) | 11.6 µM (inactive) | 10.1 µM (inactive) | 15.2 µM (inactive) | 12.8 µM (inactive) | 4.75 µM (inactive)
Brc1ccc2c(-c3csc(-c4c[nH]c5ccc(Br)cc45)n3)c[nH]c2c1 | 5.22 µM (inactive) | 6.9 µM (inactive) | 3.42 µM (inactive) | 5.92 µM (inactive) | 5.52 µM (inactive) | 2.43 µM (inactive) | 2.42 µM (inactive) | 2.96 µM (inactive) | 2.87 µM (inactive) | 2.31 µM (inactive) | 4.09 µM (inactive) | – | 3.53 µM (inactive) | 12.1 µM (inactive) | 3.12 µM (inactive) | 3.64 µM (inactive) | 1.27 µM (inactive) | 12.6 µM (inactive) | 4.81 µM (inactive) | 3.2 µM (inactive)
CC1(C)CC(=O)C2=C(C1)OC1(CC2c2ccc(Cl)cc2)CC(c2ccc(Cl)cc2)C2=C(CC(C)(C)CC2=O)O1 (configuration not stated) | 3.58 µM (inactive) | 6.78 µM (inactive) | 22.4 µM (inactive) | 36.7 µM (inactive) | 24.7 µM (inactive) | 12.5 µM (inactive) | 16.7 µM (inactive) | 18.5 µM (inactive) | 16.3 µM (inactive) | 15.7 µM (inactive) | 18.8 µM (inactive) | – | 8.18 µM (inactive) | 15.6 µM (inactive) | 23.1 µM (inactive) | 12.2 µM (inactive) | 16.1 µM (inactive) | 20.7 µM (inactive) | 18.2 µM (inactive) | 3.52 µM (inactive)
C[C@@H](CCO)OC1OC(COC(=O)C(C)(C)C)C(OC(=O)C(C)(C)C)C(OC(=O)C(C)(C)C)C1OC(=O)C(C)(C)C (some centres not stated) | 5.89 µM (inactive) | 27 µM (inactive) | 20.9 µM (inactive) | 22.1 µM (inactive) | 96.8 µM (inactive) | 28.2 µM (inactive) | > 10 µM (inactive) | 34.2 µM (inactive) | > 100 µM (inactive) | 39.5 µM (inactive) | 12.6 µM (inactive) | – | 89.7 µM (inactive) | 85.5 µM (inactive) | 56.5 µM (inactive) | 18 µM (inactive) | 48.4 µM (inactive) | 73.5 µM (inactive) | 22.2 µM (inactive) | 13.2 µM (inactive)
CCOP(=O)(OCC)C(Nc1ccc(F)cc1)c1cccc([N+](=O)[O-])c1 (configuration not stated) | 41.3 µM (inactive) | 57.4 µM (inactive) | > 100 µM (inactive) | > 100 µM (inactive) | 97.9 µM (inactive) | 78.9 µM (inactive) | 94 µM (inactive) | > 100 µM (inactive) | > 100 µM (inactive) | > 10 µM (inactive) | > 100 µM (inactive) | – | 38.9 µM (inactive) | > 100 µM (inactive) | 79.1 µM (inactive) | 46.8 µM (inactive) | 90.4 µM (inactive) | 89.3 µM (inactive) | 67.5 µM (inactive) | 37.9 µM (inactive)
O=C(CSc1nc2ccc(I)cc2c(=O)n1Cc1ccccc1)Nc1ccccc1 | > 100 µM (inactive) | 14.3 µM (inactive) | 11.9 µM (inactive) | 19.6 µM (inactive) | 6.75 µM (inactive) | 25.2 µM (inactive) | 94.4 µM (inactive) | 26 µM (inactive) | 69.2 µM (inactive) | 8.57 µM (inactive) | 17.5 µM (inactive) | – | 39.5 µM (inactive) | 5.7 µM (inactive) | 52.1 µM (inactive) | 42.1 µM (inactive) | 3.55 µM (inactive) | 20 µM (inactive) | 11.4 µM (inactive) | 19.3 µM (inactive)

From ChEMBL document CHEMBL1201862, “PubChem BioAssay data set” (2004)
